Test results from US4162326A, “Insect control agents” (Stauffer Chemical Company, priority 1978, dated 1979).

System: milkweed bug, Oncopeltus fasciatus (Dallas)
Experiment: anti-juvenile hormone activity and insecticidal activity against the milkweed bug (treated filter paper, second-instar nymphs)
Format: in vivo
Conditions: for ED50 (ED50 or LD50; compounds marked with asterisk, functioned as anti-juvenile hormone): anti-juvenile hormone activity (asterisk); for ED50 (ED50 or LD50; compounds marked with asterisk, functioned as anti-juvenile hormone) / LD50 (ED50 or LD50; compounds without asterisk, functioned as insecticides): second-instar nymphs, treated filter paper, 70° F, 3 to 4 weeks; for type of action (anti-juvenile hormone or general insecticide): statement in words on Table II; for LD50 (ED50 or LD50; compounds without asterisk, functioned as insecticides): insecticidal activity, mortality to at least 50% of the insects
Method: Compounds were tested for anti-juvenile hormone activity and insecticidal activity against the milkweed bug, Oncopeltus fasciatus (Dallas) as follows: The test compounds were diluted in acetone and impregnated into a filter paper disc by applying 0.6 milliliters and permitting the solvent to completely evaporate. Ten second-instar nymphs of Oncopeltus fasciatus (Dallas) were placed in a petri dish with the treated filter paper. The nymphs were supplied with milkweed seeds and water (by soaking dental cotton in a 4-dram vial cap). All petri dishes were stored at 70° F. The compounds were tested at concentrations ranging from 10 μg/cm^2 of filter paper downwards. The insecticidal or anti-juvenile hormone effect was determined when control insects had developed into normal adults, normally 3 to 4 weeks. The asterisk in the Table signifies that the indicated compound functioned as an anti-juvenilehormone. Compounds not marked with an asterisk functioned as insecticides,resulting in mortality to at least 50% of the insects at the indicated level.

Compound	ED50 (ED50 or LD50; compounds marked with asterisk, functioned as anti-juvenile hormone) [ug/cm^2]	type of action (anti-juvenile hormone or general insecticide)	LD50 (ED50 or LD50; compounds without asterisk, functioned as insecticides) [ug/cm^2]
C=CCOc1ccc2c(c1)OC(C)(C)C=C2 [Compound 3, 2,2-dimethyl-7-allyloxy-3-chromene]	2	function as anti-juvenile hormones	–
C#CCOc1ccc2c(c1)OC(C)(C)C=C2 [Compound 1]	–	function as general insecticides	2
C#CCOc1cc2c(cc1OC)OC(C)(C)C=C2 [Compound 4]	–	function as general insecticides	6
C=CCOc1cc2c(cc1OC)OC(C)(C)C=C2 [Compound 5]	–	function as general insecticides	8
CC#CCOc1ccc2c(c1)OC(C)(C)C=C2 [Compound 2]	0.5	function as anti-juvenile hormones	–
C=CCOc1cc2c(cc1OC)C=CC(C)(C)O2 [Compound 7]	0.5	function as anti-juvenile hormones	–
C#CCOc1cc2c(cc1OC)C=CC(C)(C)O2 [Compound 6]	1	function as anti-juvenile hormones	–
